Results on 3 molecules are retold here after publication PMC9325274, “In Vitro and In Silico Investigation of Diterpenoid Alkaloids Isolated from Delphinium chitralense” (Molecules, 2022).

Each structure is given as a SMILES string. Like-named read-outs stand apart in the source and are kept apart here.

Assay [1] deals with T1, AChE (Electric-eel EC 3.1.1.7) (Electrophorus electricus, UniProt O42275).
T1 construct: purchased Sigma-Aldrich (St. Louis, MO, USA)
Briefly: biochemical.

Assay [2] deals with T2, BChE (horse serum EC 3.1.1.8) (Equus caballus, UniProt P81908).
T2 construct: purchased Sigma-Aldrich (St. Louis, MO, USA); host or cells: horse serum
Description: biochemical.

The mark [3] stands for this setting: read-out: AChE ± SEM (IC50); Electric-eel AChE; SEM of five assays.
The mark [4] stands for this setting: read-out: BChE ± SEM (IC50), SEM of five assays.

T1 sequence (O42275 24-633): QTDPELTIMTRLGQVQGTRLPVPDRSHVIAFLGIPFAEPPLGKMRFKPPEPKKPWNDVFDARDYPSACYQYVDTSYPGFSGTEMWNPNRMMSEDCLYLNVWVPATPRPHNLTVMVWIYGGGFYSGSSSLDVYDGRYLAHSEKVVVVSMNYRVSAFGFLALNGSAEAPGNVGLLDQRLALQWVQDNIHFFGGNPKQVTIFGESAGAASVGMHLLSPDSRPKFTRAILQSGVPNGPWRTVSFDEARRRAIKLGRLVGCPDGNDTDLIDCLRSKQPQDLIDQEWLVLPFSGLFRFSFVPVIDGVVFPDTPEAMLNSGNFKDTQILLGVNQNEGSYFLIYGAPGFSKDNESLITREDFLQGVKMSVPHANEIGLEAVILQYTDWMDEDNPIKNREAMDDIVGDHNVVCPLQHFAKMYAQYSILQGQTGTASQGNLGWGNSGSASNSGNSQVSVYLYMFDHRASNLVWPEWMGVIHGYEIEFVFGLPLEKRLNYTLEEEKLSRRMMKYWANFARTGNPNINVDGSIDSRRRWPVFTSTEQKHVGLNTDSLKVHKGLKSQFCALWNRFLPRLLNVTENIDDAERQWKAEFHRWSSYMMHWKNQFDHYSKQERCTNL
T2 sequence (P81908 whole entry): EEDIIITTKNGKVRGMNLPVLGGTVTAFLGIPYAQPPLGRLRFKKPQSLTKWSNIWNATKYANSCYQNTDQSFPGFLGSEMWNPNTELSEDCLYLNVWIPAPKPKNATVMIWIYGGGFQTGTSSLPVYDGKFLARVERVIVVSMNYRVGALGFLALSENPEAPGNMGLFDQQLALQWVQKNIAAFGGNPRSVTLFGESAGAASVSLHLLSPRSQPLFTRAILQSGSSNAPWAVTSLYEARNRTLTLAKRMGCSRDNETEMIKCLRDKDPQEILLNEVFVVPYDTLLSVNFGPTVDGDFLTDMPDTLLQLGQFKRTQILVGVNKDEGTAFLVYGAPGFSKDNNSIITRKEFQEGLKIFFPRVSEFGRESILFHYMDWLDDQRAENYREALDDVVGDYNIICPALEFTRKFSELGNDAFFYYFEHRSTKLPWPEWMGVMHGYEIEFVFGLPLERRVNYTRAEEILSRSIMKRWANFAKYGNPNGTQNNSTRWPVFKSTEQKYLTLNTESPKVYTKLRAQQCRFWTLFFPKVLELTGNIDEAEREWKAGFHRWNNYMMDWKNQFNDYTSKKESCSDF

Take `C=C1CC23CC(=O)C4C56C(C2C(=O)C1(O)C(O)C35O)N(C)C(O)[C@]4(C)CC(O)[C@@H]6O` (stereo partly drawn) [Compound 2, 9,11,12,19β- tetrahydoxy hetidine]: the IC50 in assay [1] (setting [3]) stood at 11.64 ± 0.08 µM; in assay [2] (setting [4]) it was 24.3 ± 0.33 µM. The “Type of Inhibition” value in assay [1] (stated for inhibition of AChE and BChE; listed as Chitralinine B) was “Competitive”.
Turning to `C=C1CC23CC(=O)C4C5(C)CC(O)C(O)C46C(C2CC1(O)C(O)C36O)N(C)C5O` (stereo not drawn) [Compound 3, 1α, 2, 9,11,12,19β-hexahydoxy atisinone], the IC50 in assay [1] (setting [3]) stood at 12.1 ± 0.82 µM; in assay [2] (setting [4]), 26.35 ± 0.06 µM. In addition, the “Type of Inhibition” value in assay [1] (stated for inhibition of AChE and BChE; listed as Chitralinine-C) was “Competitive”.
On to `C=C1CC23CC(=O)C4C5(C)CC(O)C(O)C46C(C2C(=O)C1CC36O)N(C)C5` (stereo not drawn) [Compound 1, 9β-hydroxy hetidine], for which the 50% inhibitory concentration (IC50) was found to be 13.9 ± 0.35 µM in assay [1] (Electric-eel AChE; SEM of five assays; read-out: AChE ± SEM (IC50)) and 28.2 ± 0.92 µM in assay [2] (SEM of five assays, read-out: BChE ± SEM (IC50)). Also, the “Type of Inhibition” value in assay [1] (stated for inhibition of AChE and BChE; listed as Chitralinine A) is “Competitive”.

What is called IC50 is the midpoint of a concentration-inhibition curve.
